Results published in patent US7494821B2, “Fluorescein based sensors for tracking nitric oxide in live cells” (Massachusetts Institute of Technology, priority 2005, dated 2009).
Each block holds one compound with its values, some of them ahead of it.

Tests used:
[1] = tested on: SK-N-SH human neuroblastoma cells; test: Detection of NO produced by cNOS in SK-N-SH cells (fluorescence imaging); format: cell-based; settings: estradiol-stimulated neuroblastoma cells
Procedure: FIG. 7 illustrates Cu(FL5) detection of NO produced by cNOS. (a) NO detection in SK-N-SH cells by Cu(FL5). Left to right: 25 min incubation of Cu(FL5) (1 μM) and 5, 10, 15, 25 min after co-treatment of Cu(FL5) (1 μM) and 17β-estradiol (100 nM). Images were taken with a Nikon Eclipse TS100 microscope after removing the DMEM media and washing the cells with PBS. Top: fluorescence images; bottom: phase contrast images. (b) Fluorescence intensity (F(t)/FCu(FL5)) from a was plotted against incubation time. (c) NO production with or without of L-NNA. Right: NO detection in cells after 10 min co-incubation of Cu(FL5) (1 μM) and 17β-estradiol (100 nM). Left: NO detection in cells pre-treated with L-NNA for 1 h before addition of Cu(FL5) and 17β-estradiol.
We investigated the ability of Cu(FL5) to detect NO produced in SK-N-SH human neuroblastoma cells under physiological conditions, since constitutive NO synthase (“cNOS”) in this cell line can be activated by estrogen to produce NO. Estrogen administration leads to an increase in the cytosolic Ca(II) concentration that alters the structure of calmodulin, which in turn activates cNOS. The NO-dependent fluorescence response, monitored after simultaneous administration of 17β-estradiol (100 nM) and Cu(FL5) (1 μM) to the cells, was completed within 5 min with a 4.0±0.6-fold increase in fluorescence (FIGS. 5a and b). […] As another control, HeLa cells were co-treated with 17β-estradiol (100 nM) and Cu(FL5) (1 μM).
Raw 264.7, SK-N-SH, and HeLa cells were purchased from the American Type Culture Collection (ATCC). All three cell lines were maintained in Dulbecco's modified Eagles' media (DMEM) (GibcoBRL) containing 10% (v/v) heat-inactivated fetal bovine serum (FBS) (HyClone), 1 mM sodium pyruvate (Sigma), 100 units/ml penicillin, 100 μg/ml streptomycin (Invitrogen), and 0.1 mM nonessential amino acid solution for minimal essential medium (Sigma). All cells were grown at 37° C. in a humidified atmosphere of 10% CO2. A nitrite assay was performed with Griess reagents (Promega) on Raw 264.7 cells grown in DMEM free of phenol red. Calcium sensor fluo-4 AM was purchased from Invitrogen. MTT [3-(4,5-dimethylthiazol-2-yl)-2,5-diphenyltetrazolium bromide] (Sigma-Aldrich) assay was described in Supplementary information. The expression of iNOS in Raw 264.7 cells was analyzed by Western blot on the extracts of cells stimulated by LPS and INF-γ. The protein was silenced by short hairpin RNA-induced RNAi and the resulting cell lines were used in fluorescence imaging by Cu(FL5).

Quantum yield = format: physicochemical
Source text: Quantum yield may be obtained by comparison of the integrated area of the corrected emission spectrum of the sample with that of a reference solution. A preferred reference solution is a solution of fluorescein in 0.1 N NaOH, quantum efficiency 0.95. The concentration of the reference is adjusted to match the absorbance of the test sample. The quantum yields may be calculated using the following equation.
Upon addition of excess NO, a 499 nm peak in the UV-vis spectrum of Cu(FL5) in pH 7.0 buffered solution red-shifted back to the λmax characteristic of FL5 or the synthetic FL5−NO compound (504 nm), which differs from the band formed in the reaction of FL5 with 1 equivalent of Cu(I) added as [Cu(CH3CN)4](BF4) (506 nm). […] In addition, the spectrum of the NO reaction solution closely resembled that of the monoanionic fluorescein formed by lowering the pH from 7.0 to 5.0. […] These values are in the range previously reported for N-nitrosamines. The presence of two separate chemical shifts might arise from different isomers in solution, the Δδ of 2.29 being similar to that of previously reported of N-nitrosamines. […] Lastly, FL5−NO is brighter than FL5 or Cu(FL5), the respective quantum yields being ΦFL-NO=0.58±0.02 and ΦFL=0.077±0.002.

[2] = Stability of nitrosated ligand at pH 7.0; format: physicochemical
Source text: High resolution MS of FL5-^14NO and FL-^15NO were also obtained, showing m/z=600.0729 for FL5-^14NO and 601.0736 for FL5-^15NO, corresponding to [FL5+NO−H+Cl]^− (calcd. m/z 600.0729 and 601.0700).

[3] = Fluorescence response to NO in buffered aqueous solution
Procedure: FIG. 5 depicts the fluorescence response of Cu(FL5) to NO. Fluorescence emission spectra (λex=503 nm) of a deoxygenated 1 μM solution of Cu(FL5) in buffered solution (50 mM PIPES, pH 7.0, 100 mM KCl) before (dashed line), immediately, 1, 2 and 5 min after (solid lines) admission of 1300 equiv of NO (g) at 37° C.
The fluorescence of a 1 μM FL5 solution was diminished by 18±3% upon introduction of an equimolar quantity of CuCl2 at 37° C. Addition of excess NO to a buffered aqueous Cu(FL5) solution led to an immediate 11.2±1.5-fold increase in fluorescence (FIG. 5). […] The lower detection limit for NO is 5 nM.
A commercially available NO probe, DAF-2 (o-diaminofluorescein), was used for comparison with Cu(FL5). The fluorescence of DAF-2 is unchanged in the presence of NO and the absence of O2 over a period of 1 h.
As depicted in FIG. 4, NO detection by Cu(FL5) occurs, formally, by nitric oxide-induced reduction of Cu(II) to Cu(I), forming NO^+, which nitrosates the ligand with concomitant dissociation from copper and fluorescence turn-on. The mechanism of turn-on emission of Cu(FL5) by NO was investigated by EPR, UV-vis, NMR and fluorescence spectroscopy and by liquid chromatography-mass spectrometry (LC-MS, low resolution MS).

Compound: CC(=O)Oc1ccc2c(c1)Oc1cc(OC(C)=O)ccc1C21OC(=O)c2cc(N)c(N)cc21 [DAF-2 DA, o-diaminofluorescein diacetate, reference compound]
fluorescence increase of treated cells 30 min after activation of cNOS [1]: only a slight fluorescence increase

quantum yield Φ (Quantum yield): 0.58±0.02 | stability [2]: stable for several days
Compound: Cc1ccc2cccc(N(Cc3c(O)ccc4c(-c5ccccc5C(=O)O)c5cc(Cl)c(=O)cc-5oc34)N=O)c2n1 [FL5−NO, 2-{2-chloro-6-hydroxy-5-[((2-methylquinolin-8-yl)(nitroso)amino)-methyl]-3-oxo-3H-xanthen-9-yl}-benzoic acid]

Compound: o-diaminofluorescein [DAF-2, reference compound]
fluorescence in the presence of NO when O2 is present [3]: turn-on fluorescence | fluorescence in the presence of NO and the absence of O2 ([3]; over a period of 1 h): unchanged
